This note sets out measurements from ChEMBL document CHEMBL1146235, “Rationally designed dual inhibitors of HIV reverse transcriptase and integrase” (J Med Chem, 2007).

Data set [1] deals with Human immunodeficiency virus 1. The data set is described as follows: Antiviral activity against HIV1 NL4-3 in human PBMC. Type of data set: functional, organism-based. Particulars: Human immunodeficiency virus 1, NL4.3.
Data set [2] can be described thus: Cytotoxicity against human PBMC. Type of data set: cell-based. Particulars: PBMC (peripheral blood mononuclear cells).
Data set [3] has as its target Human immunodeficiency virus type 1 reverse transcriptase (Human immunodeficiency virus 1, UniProt Q72547). Description: Inhibition of HIV1 reverse transcriptase.
Data set [4] addresses Human immunodeficiency virus type 1 integrase (Human immunodeficiency virus 1, UniProt Q7ZJM1). The data set is described as follows: Inhibition of HIV1 integrase expressed in Escherichia coli BL21 (DE3).
Data set [5] can be described thus: Theraputc index, ratio of CC50 of PBMC cells to EC50 of HIV1 NL4-3. It is filed as ADME, cell-based. Particulars: read-out: Ratio CC50/EC50.
The nature of data set [6]: Cytotoxicity against CEM-SS cells assessed as cell viability. Particulars: human, read-out: Activity. It is filed as cell-based.
For data set [7], the system named is Human immunodeficiency virus 1. Description: Antiviral activity against HIV1 3B in CEM-SS cells by cytoprotection assay. It is filed as functional. Set-up: concentration or dose not given beside the values.

Some results are limits rather than exact numbers.

Sequence of Human immunodeficiency virus type 1 integrase (Q7ZJM1 whole entry): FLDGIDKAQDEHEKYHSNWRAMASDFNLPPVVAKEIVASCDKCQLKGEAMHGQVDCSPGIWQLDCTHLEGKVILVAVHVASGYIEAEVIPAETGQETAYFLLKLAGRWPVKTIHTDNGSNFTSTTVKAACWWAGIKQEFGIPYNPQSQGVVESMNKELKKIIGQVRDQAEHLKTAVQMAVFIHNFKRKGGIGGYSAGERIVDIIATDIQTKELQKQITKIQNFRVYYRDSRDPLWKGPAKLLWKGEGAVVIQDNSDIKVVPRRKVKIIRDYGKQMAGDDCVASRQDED

The EC50 is the concentration giving half of the maximal effect. As a reminder, the CC50 is the concentration that lowers cell viability or growth by half. Usually IC50 stands for the concentration that inhibits the measured activity by half. In turn, `O=C(O)/C(O)=C/C(=O)c1cccc(Cc2ccccc2)c1` returned an EC50 in data set [1] of 160 nM. Further, in data set [2], the CC50 was > 10000 nM. The IC50 in data set [3] is > 100000 nM.
Consider `CC(C)c1c(Cc2ccccc2)n(COCc2ccccc2)c(=O)[nH]c1=O`, for which the IC50 is > 100000 nM in data set [4] and 16 nM in data set [3]. In data set [1], this compound displayed an EC50 of 16 nM. In addition, the cytotoxic concentration (CC50) in data set [2] is > 10000 nM. For the same compound, the selectivity ratio in data set [5] is > 160.
On to `CC(C)c1c(Cc2ccccc2)n(COCc2ccc(C(=O)/C=C(\O)C(=O)O)cc2)c(=O)[nH]c1=O`, for which, in data set [6], the viability worked out at 90%. The IC50 in data set [4] is 2410 nM; in data set [3], 57 nM. For the same compound, the concentration for a half-maximal effect (EC50) in data set [1] was 33 nM. Further, in data set [2], the 50% cytotoxic concentration (CC50) was > 10000 nM. For the same compound, the Activity in data set [7] came to 100%. Moreover, the selectivity ratio in data set [5] is > 310.
Turning to `CCc1c(Cc2cc(C)cc(C)c2)n(COCc2ccc(C(=O)/C=C(\O)C(=O)O)cc2)c(=O)[nH]c1=O`, the viability in data set [6] turned out to be 100%. Moreover, the half-maximal inhibitory concentration (IC50) in data set [4] stood at 4440 nM; in data set [3], 24.2 nM. The compound also registered an EC50 in data set [1] of 9.7 nM. Moreover, the half-maximal cytotoxic concentration (CC50) in data set [2] is > 10000 nM. Besides, the Activity in data set [7] is on record as 100%. Further, the selectivity ratio in data set [5] is > 1000.
As for `O=[N+]([O-])c1ccc(C2c3c(O)nc(S)nc3Oc3nc(S)nc(O)c32)cc1`, the IC50 in data set [4] came to 300 nM; in data set [3] it was 4800 nM. In addition, it took 120000 nM to reach half-maximal cytotoxicity in data set [2] (CC50). In addition, the selectivity ratio in data set [5] was found to be 14.
For `O=C(Nc1ccc2c(O)c(/N=N/c3ccc(C(=O)O)cc3)c(S(=O)(=O)O)cc2c1)Nc1ccc2c(O)c(/N=N/c3ccc(C(=O)O)cc3)c(S(=O)(=O)O)cc2c1`, the IC50 in data set [4] was determined as 700 nM; in data set [3] it was 390 nM.
As for `CCc1c(Cc2ccccc2)n(COCc2ccc(C(=O)/C=C(\O)C(=O)O)cc2)c(=O)[nH]c1=O`, in data set [6], the viability was 91%. In addition, the IC50 in data set [4] came out at 1820 nM; in data set [3], 235 nM. Besides, the concentration giving a half-maximal response (EC50) in data set [1] was 52 nM. Further, in data set [2], the CC50 is > 10000 nM. The same compound came in with an Activity in data set [7] of 95.2%. Besides, in data set [5], the selectivity ratio was > 190.
Consider `Cc1cc(C)cc(Cc2c(C(C)C)c(=O)[nH]c(=O)n2COCc2ccc(C(=O)/C=C(\O)C(=O)O)cc2)c1`, for which the viability in data set [6] worked out at 100%. The IC50 in data set [4] came to 7670 nM; in data set [3], 9.2 nM. This compound gave a concentration giving a half-maximal response (EC50) in data set [1] of 17 nM. Besides, in data set [2], the CC50 is > 10000 nM. The compound further showed an Activity in data set [7] of 100%. Moreover, in data set [5], the selectivity ratio was > 600.
Turning to `O=Cc1ccc(-c2cc(-c3cccc(C=O)c3)c(O)c(O)c(=O)c2O)cc1`, the half-inhibitory concentration (IC50) was 1100 nM in data set [4] and 1200 nM in data set [3]. In addition, in data set [1], the EC50 was 3000 nM. Also, the half-maximal cytotoxic concentration (CC50) in data set [2] turned out to be 6000 nM. Also, the selectivity ratio in data set [5] turned out to be 2.
